Measured values from US5482954A, “Signal transduction inhibitor triazole and diazole compounds” (priority 1994, dated 1996).

Experiments:
[1] = test system: MDA-231 human breast cancer cells; test: AMF-stimulated cell motility; type: cell-based; conditions: overnight exposure; data not shown
[2] = test system: 5R cells; test: Cell adhesion to tissue culture plastic; type: cell-based, rat; conditions: 0.03-10 μg/mL, 2 to 48 hr preincubation
Description: An adhesion assay was developed using tissue culture plastic petri dishes as the substrate. Aliquots of cells treated similarly to those in the cell motility assay were plated in triplicate onto the dishes and incubated for 90 rain at 37° C. Cells which were either poorly adherent or nonadherent were gently washed off with PBS. The remaining cells were stained with Diff Quik™ (from Baxter Scientific Products, McGaw Park. Ill., USA). Adherence was quantitated using laser densitometry and values were calculated as a percentage of the control adherence.
Cells were preincubated with compound 1 (0.03-10 μg/mL) for periods of 2 to 48 hr prior to the adhesion assay. In addition, compound 1 remained present during the assay. […] Maximal inhibition of adhesion was observed following overnight exposure of the cells to compound 1.

[3] = test system: T24 (EJ) bladder; test: Growth of tumor cell lines; type: cell-based; conditions: T-24 human bladder cancer with activated H-ras
Description: In one study, the cells were continuously exposed to 20 μM compound 1, and growth inhibition was measured. In a second study, cell lines which only grow in suspension were plated in 24 well plates (50,000 cells/well) and were incubated with increasing concentrations of compound 1. After 72 hr in culture, the cells were harvested, centrifuged,resuspended in a small volume. The number of remaining cells and their viability was determined using a hemocytometer.

[4] = test system: CHOm5 cells; test: Calcium ionophore A23187-stimulated 45Ca2+ influx; type: cell-based, Chinese hamster; conditions: Cricetulus griseus; FIG. 13, A23187
Description: Calcium influx was determined using two methods. The first method involved the use of ^45 Ca^2+, while the second method utilized a fluorescent intracellular calcium chelator, Fura-2. The method using Fura-2 is semi-quantitative and is preferred for kinetic analysis and screening whereas the ^45 Ca^2+ method is quantitative.
CHOm5 cells in monolayer culture were washed free of serum-containing media and incubated with either carbachol or the calcium ionophore A23187 (from Molecular Probes, Eugene, Oreg., USA) in the presence of ^45 Ca^2+ and defined buffer (E2 medium with 0.1 mM MgCl2 and 1.0 mM CaCl2). After incubation for 5 min, the radioactive buffer was rapidly and repeatedly washed off with media containing LaCl3, a competitor of calcium efflux. The cell monolayer was solubilized and the calcium uptake was determined by scintillation counting.

**Q.** What does the source list for `NC(=O)c1nnn(Cc2cc(Cl)c(C(=O)c3ccc(Cl)cc3)c(Cl)c2)c1N` [Compound 1]?
**A.** motile response to AMF [1]: inhibited; inhibition of cell adhesion [2]: dose-dependent inhibition of cell adhesion; inhibition of proliferation [3]: inhibited proliferation; IC50 [4]: 359 ± 11 nM
